In data set [1] the target is T1, Bifunctional epoxide hydrolase 2 (Homo sapiens, UniProt P34913).
T1 sequence (P34913 whole entry): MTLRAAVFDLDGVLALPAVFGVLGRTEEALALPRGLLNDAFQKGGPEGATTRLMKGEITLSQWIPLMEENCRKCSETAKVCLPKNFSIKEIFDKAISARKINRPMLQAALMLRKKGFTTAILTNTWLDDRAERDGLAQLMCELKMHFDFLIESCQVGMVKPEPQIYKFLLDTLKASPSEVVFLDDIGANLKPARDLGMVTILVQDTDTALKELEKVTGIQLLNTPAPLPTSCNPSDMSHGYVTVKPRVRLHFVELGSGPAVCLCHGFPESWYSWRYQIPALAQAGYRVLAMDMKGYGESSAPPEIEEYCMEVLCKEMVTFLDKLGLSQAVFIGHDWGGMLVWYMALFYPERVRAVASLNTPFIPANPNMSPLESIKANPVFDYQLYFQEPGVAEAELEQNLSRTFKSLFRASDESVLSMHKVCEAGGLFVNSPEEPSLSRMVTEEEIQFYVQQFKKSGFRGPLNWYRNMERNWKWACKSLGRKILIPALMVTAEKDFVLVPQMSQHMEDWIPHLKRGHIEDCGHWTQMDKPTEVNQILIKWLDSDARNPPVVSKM
Briefly: Inhibition of sEH (unknown origin).

Data set [2] has as its target T2, Bile acid receptor (Homo sapiens, UniProt Q96RI1).
T2 sequence (Q96RI1 whole entry): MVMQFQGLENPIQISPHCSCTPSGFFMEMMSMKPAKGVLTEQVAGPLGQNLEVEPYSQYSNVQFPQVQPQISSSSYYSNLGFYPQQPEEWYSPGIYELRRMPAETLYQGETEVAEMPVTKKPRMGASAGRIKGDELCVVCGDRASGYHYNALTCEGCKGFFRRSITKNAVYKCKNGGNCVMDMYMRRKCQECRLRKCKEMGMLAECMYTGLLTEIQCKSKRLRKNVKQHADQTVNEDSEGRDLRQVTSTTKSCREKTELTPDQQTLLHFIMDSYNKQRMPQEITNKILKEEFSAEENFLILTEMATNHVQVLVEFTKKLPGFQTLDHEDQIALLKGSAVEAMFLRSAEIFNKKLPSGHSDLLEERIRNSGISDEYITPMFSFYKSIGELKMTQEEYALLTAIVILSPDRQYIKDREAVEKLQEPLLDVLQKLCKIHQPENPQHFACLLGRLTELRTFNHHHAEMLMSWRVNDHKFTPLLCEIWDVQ
Briefly: Agonist activity at FXR in human HeLa cells incubated for 24 hrs by Dual-Glo luciferase assay. It counts as cell-based. The settings on record: hela.

In data set [3] the target is T3, Bile acid receptor (Homo sapiens) (UniProt Q96RI1).
T3 sequence (whole entry): T2 sequence (Q96RI1 whole entry)
In words: Agonist activity at human FXR expressed in CHO cells assessed as maximum efficacy incubated for 22 hrs by luciferase reporter assay relative to control. It counts as cell-based. (In general: A reporter such as luciferase makes a cellular process visible.)

Data set [4] deals with T2, Bile acid receptor. In words: Agonist activity at FXR in HEK293T cells by steady-glo luciferase assay. The format is cell-based.
Data set [5] addresses T2, Bile acid receptor. Briefly: Agonist activity at FXR in human HeLa cells by Dual-Glo luciferase assay. It counts as cell-based.
Data set [6] deals with Voltage-gated inwardly rectifying potassium channel KCNH2 (Homo sapiens, UniProt Q12809). Briefly: Inhibition of hERG. The format is toxicity. (In general: Block of hERG is tested as a sign of cardiac risk.)
Data set [7] concerns the target T2, Bile acid receptor. In words: Agonist activity at human FXR incubated for 24 hrs by luciferase reporter assay.
Data set [8] deals with T2, Bile acid receptor. Briefly: Agonist activity at human FXR.
Data set [9] in a line: Metabolic stability in human liver microsomes assessed as half life in presence of NADPH incubated up to 60 mins by LC-MS/MS analysis. It counts as ADME, Microsome.
Data set [10] concerns the target T2, Bile acid receptor. Briefly: Agonist activity at FXR (unknown origin).
The target of data set [11] is Bile acid receptor (Homo sapiens) (UniProt Q96RI1). Briefly: Agonist activity at FXR in human HepG2 cells at 3 uM relative to control. To be noted: filed as agonist.
The target is the same in data set [12]. Briefly: Agonist activity at FXR in human HepG2 cells coexpressing BSEP at 0.3 uM relative to control. To be noted: filed as agonist.
Data set [13] deals with Mus musculus. In words: Anti-NASH activity in nonalcoholic steatohepatitis C57BL/6 mouse model assessed as decrease in level of serum ALT 10 mg/kg, iv relative to control. The format is functional. Further details: scale not given: the % may be the effect or the level left.
Data set [14] relates to Mus musculus. Briefly: Anti-NASH activity in nonalcoholic steatohepatitis C57BL/6 mouse model assessed as decrease in level of serum AST 10 mg/kg, iv relative to control. It counts as functional. Further details: scale not given: the % may be the effect or the level left.
The target in data set [15] is T3, Bile acid receptor (Homo sapiens). Briefly: Agonist activity at FXR in HEK293 cells assessed as maximum efficacy relative to control. The format is cell-based. The settings on record: filed as agonist.
The nature of data set [16]: AUC(0 to 24 hrs) in Sprague-Dawley rat liver at 5 mg/kg, po measured up to 24 hrs by LC-MS-MS analysis. The settings on record: in vivo. It counts as ADME, organism-based. Further details: dose 5 mg/kg, time < 24 hrs, route po.
Data set [17] is described as follows: AUC(0 to 24 hrs) in Sprague-Dawley rat serum at 5 mg/kg, po measured up to 24 hrs by LC-MS-MS analysis. The format is ADME, organism-based. Further details: dose 5 mg/kg, time < 24 hrs, route po.
A short description of data set [18]: Cmax in Sprague-Dawley rat liver at 5 mg/kg, po measured up to 24 hrs by LC-MS-MS analysis. The format is ADME, organism-based. Further details: time < 24 hrs, dose 5 mg/kg, route po.
Data set [19] can be described thus: Cmax in Sprague-Dawley rat serum at 5 mg/kg, po measured up to 24 hrs by LC-MS-MS analysis. It counts as ADME, organism-based. Further details: dose 5 mg/kg, time < 24 hrs, route po.
Data set [20] in a line: AUC(0 to 24 hrs) in Sprague-Dawley rat serum at 1 mg/kg, iv measured up to 24 hrs by LC-MS-MS analysis. The format is ADME, organism-based. Further details: dose 1 mg/kg, time < 24 hrs, route iv.
A short description of data set [21]: Cmax in Sprague-Dawley rat serum at 1 mg/kg, iv measured up to 24 hrs by LC-MS-MS analysis. Further details: time < 24 hrs, dose 1 mg/kg, route iv. It counts as ADME, organism-based.
Data set [22] has as its target T2, Bile acid receptor. In words: Agonist activity at human GST-tagged FXR incubated for 1 hrs by alphascreen assay.

Voltage-gated inwardly rectifying potassium channel KCNH2, sequence (Q12809 whole entry): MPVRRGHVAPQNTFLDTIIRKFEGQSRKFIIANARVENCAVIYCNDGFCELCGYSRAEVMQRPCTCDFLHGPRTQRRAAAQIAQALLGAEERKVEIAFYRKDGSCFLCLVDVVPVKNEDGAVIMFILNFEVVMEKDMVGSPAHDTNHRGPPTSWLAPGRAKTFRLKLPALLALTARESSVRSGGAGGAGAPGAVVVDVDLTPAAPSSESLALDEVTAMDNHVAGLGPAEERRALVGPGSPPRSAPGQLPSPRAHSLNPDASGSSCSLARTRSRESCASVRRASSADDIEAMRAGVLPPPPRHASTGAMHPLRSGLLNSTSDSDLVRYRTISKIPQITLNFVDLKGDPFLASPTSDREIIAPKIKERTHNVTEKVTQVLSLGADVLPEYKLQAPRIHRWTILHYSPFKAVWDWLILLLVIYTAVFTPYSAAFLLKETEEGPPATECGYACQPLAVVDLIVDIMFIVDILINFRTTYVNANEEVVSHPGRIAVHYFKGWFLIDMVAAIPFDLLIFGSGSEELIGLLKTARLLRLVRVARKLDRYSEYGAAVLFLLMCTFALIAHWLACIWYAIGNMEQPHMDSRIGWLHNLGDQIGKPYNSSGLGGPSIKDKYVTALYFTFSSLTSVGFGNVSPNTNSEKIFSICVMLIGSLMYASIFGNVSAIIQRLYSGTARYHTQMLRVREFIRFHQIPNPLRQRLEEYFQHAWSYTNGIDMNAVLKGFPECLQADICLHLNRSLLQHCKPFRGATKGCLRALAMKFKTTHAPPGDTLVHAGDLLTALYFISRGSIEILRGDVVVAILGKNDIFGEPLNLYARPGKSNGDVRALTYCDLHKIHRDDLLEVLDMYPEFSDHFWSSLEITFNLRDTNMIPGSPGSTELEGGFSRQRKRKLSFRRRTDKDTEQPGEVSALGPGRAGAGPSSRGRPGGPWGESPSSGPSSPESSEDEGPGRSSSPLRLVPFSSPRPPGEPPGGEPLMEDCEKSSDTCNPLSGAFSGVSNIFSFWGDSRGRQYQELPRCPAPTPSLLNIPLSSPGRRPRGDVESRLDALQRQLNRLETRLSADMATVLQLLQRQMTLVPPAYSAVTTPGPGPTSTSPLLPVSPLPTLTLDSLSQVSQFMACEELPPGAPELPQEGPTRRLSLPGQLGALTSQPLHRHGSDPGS

The term IC50 denotes the midpoint of a concentration-inhibition curve. The EC50 is the midpoint of the concentration-response curve. Turning to `CC(C)(C)c1ccc(C(=O)Nc2ccc3ccn(Cc4ccc(C(=O)O)cc4)c3c2)cc1`, half-maximal inhibition in data set [1] (IC50) was put at 2900 nM. Besides, the EC50 at Bile acid receptor [2] was found to be 3500 nM.
For orientation: Emax means the maximal effect, on the per cent scale that the assay sets. With `COc1cc(Cl)cc(N(CC23CCC(c4ccc(OC)c(C#N)c4)(CC2)CC3)C(=O)c2ccncc2C)c1`, the Emax in [3] came to 28%.
`O=S(O)c1cc(F)c2nc(N3[C@@H]4CC[C@H]3C[C@@H](OCc3c(-c5ccccc5OC(F)(F)F)noc3C3CC3)C4)sc2c1` yielded an EC50 on Bile acid receptor [4] of under 500 nM.
`O=C(O)c1cccc(NC(=O)c2ccc(OCc3ccccc3)cc2)c1`: on Bile acid receptor [5], the EC50 was 9.1 nM.
Consider `Cc1cc(OCc2c(-c3c(Cl)cccc3Cl)noc2C2CC2)ccc1C1=NOC(c2cc(C(=O)O)nn2C)C1` (stereo unspecified), for which the IC50 in [6] is over 30000 nM. In addition, the EC50 on Bile acid receptor [4] came to 10 nM.
Regarding `CC[C@H]1[C@@H](O)[C@@H]2[C@H](CC[C@]3(C)[C@@H]([C@H](C)CCNC(=O)NS(=O)(=O)c4ccc(C(C)(C)C)cc4)CC[C@@H]23)[C@@]2(C)CC[C@@H](O)[C@H](F)[C@@H]12`, it took 19 nM to reach a half-maximal effect at Bile acid receptor [7] (EC50).
Take `CC(C)Oc1cc(C(=O)NS(=O)(=O)N2CCCCC2)cc2sc(O[C@@H]3CO[C@H]4[C@H]3OC[C@H]4OCc3c(-c4c(Cl)cccc4Cl)noc3C3CC3)nc12`: on Bile acid receptor [8], the EC50 is under 30 nM.
Broadly, the half-life is how long it takes for the measured level to halve. For the compound `O=C(O)c1ccc(-c2csc(N3[C@@H]4CC[C@H]3C[C@@H](OCc3c(-c5ccccc5OC(F)(F)F)noc3C3CC3)C4)n2)cc1C(F)(F)F`, in data set [9], the half-life was determined as 2.5 h.
For `O=C(O)c1cccc(NC(=O)c2ccc(OCCCCc3ccccc3)cc2)c1`, the EC50 at Bile acid receptor [5] is 26 nM.
Turning to `O=C(O)c1cc(F)c2nc(N3[C@@H]4CC[C@H]3C[C@@H](OCc3c(-c5c(Cl)cccc5Cl)noc3C3CC3)C4)sc2c1`, at Bile acid receptor [10], the response was half-maximal at 7.7 nM (EC50).
On to `CC(C)Oc1cc(C(=O)NS(=O)(=O)N2CCCC2)cc2sc(O[C@@H]3CO[C@H]4[C@H]3OC[C@H]4OCc3c(-c4c(Cl)cccc4Cl)noc3C3CC3)nc12`, for which the 50% effective concentration (EC50) on Bile acid receptor [8] was under 30 nM.
Regarding `O=C(O)c1ccc2nc(N3C[C@@H]4C[C@H]3C[C@H]4OCc3c(-c4c(Cl)cccc4Cl)noc3C3CC3)sc2c1`, the figures for the Activity in data set [11] and in [12] were 185% and 166%, respectively.
Regarding `O=C(O)c1cccc(NC(=O)c2ccc(Oc3ccccc3)cc2)c1`, the EC50 on Bile acid receptor [5] is 10 nM.
For `O=C(O)c1ccc([C@@H]2C[C@H]2c2ccc(OCc3c(-c4c(Cl)cccc4Cl)noc3C3CC3)cc2Cl)cc1`, the Activity in data set [11] came to 100%; in data set [12] it was 60%.
On Bile acid receptor [7], `CC[C@H]1[C@@H](O)[C@@H]2[C@H](CC[C@]3(C)[C@@H]([C@H](C)CCNC(=O)NS(=O)(=O)c4ccc(C)cc4)CC[C@@H]23)[C@@]2(C)CC[C@@H](O)[C@H](F)[C@@H]12` came in with a concentration giving a half-maximal response (EC50) of 18 nM.
Turning to `CC(C)n1ncc(-c2c(Cl)cccc2Cl)c1COc1ccc(N(C)Cc2cccc(C(=O)O)c2)c(C(F)(F)F)c1`, the Activity in the data set with Mus musculus [13] worked out at 63%; in the data set on Mus musculus [14] it was 59%.
One may read the AUC(0-t) as exposure summed from dosing to a finite time, without extrapolation to infinity. As a reminder, the Cmax is the peak of the concentration-time curve. As to `O=C(O)c1ccc(-c2csc(N3CCC(OCc4c(-c5c(Cl)cccc5Cl)noc4C4CC4)CC3)n2)cc1`, in [15], the Emax is 101%. In data set [16], this compound came in with an AUC of 14971 ng·h/g. Also, the area under the curve AUC(0-t) at 24 h in [17] is 1180 ng·h/mL; in [20], 2410 ng·h/mL. Further, the values for the maximum concentration (Cmax) in [18], in data set [19] and in data set [21] were 3370 ng/g, 252 ng/mL and 4340 ng/mL, respectively. In addition, at Bile acid receptor [4], the EC50 is 12 nM.
Turning to `O=C(O)c1ccc(N2C(=O)CCc3cc(OCc4c(-c5c(Cl)cccc5Cl)noc4C4CC4)ccc32)nc1`, the EC50 at Bile acid receptor [22] was found to be 20 nM.
`CC(C)Oc1cc(C(=O)O)cc2sc(O[C@@H]3CO[C@H]4[C@@H]3OC[C@H]4OCc3c(-c4ccccc4OC(F)(F)F)noc3C3CC3)nc12` displayed an EC50 on Bile acid receptor [8] of under 30 nM.

These data come from ChEMBL document CHEMBL5233278, “Recent Advances in the Medicinal Chemistry of Farnesoid X Receptor” (J Med Chem, 2021).
